Measurements taken from patent publication US10125126B2, “N-cycloalkyl-N-[(heterocyclylphenyl)methylene]-(thio)carboxamide derivatives” (BAYER CROPSCIENCE AG, priority 2012, dated 2018).
Like-named read-outs stand apart in the source and are kept apart here. Values belong to the molecule of their own block, whether it stands above or below them.

How the values were obtained:
Sphaerotheca fuliginea = experiment: In vivo preventive test on Sphaerotheca fuliginea (powdery mildew on cucurbits); settings: gherkin plants, 12 days after contamination
Experimental: In Vivo Preventive Test on Sphaerotheca fuliginea (Powdery Mildew on Cucurbits) […] Gherkin plants (“Vert petit de Paris” variety), sown in starter cups on a 50/50 peat soil-pozzolana substrate and grown at 24° C., are treated at the Z11 cotyledon stage by spraying with the active ingredient prepared as described above. Plants, used as controls, are treated with the mixture of acetone/tween/DMSO/water not containing the active material. After 24 hours, the plants are contaminated by spraying the cotyledons with an aqueous suspension of Sphaerotheca fuliginea spores (100 000 spores per mL). The spores are collected from infected plants. […] Grading (% of efficacy) is carried out 12 days after the contamination, in comparison with the control plants.

[1] = log P by HPLC on a reversed-phase column (C 18), EEC Directive 79/831 Annex V.A8; type: physicochemical
Experimental: In table 1, the log P values were determined in accordance with EEC Directive 79/831 Annex V.A8 by HPLC (High Performance Liquid Chromatography) on a reversed-phase column (C 18), using the method described below: Temperature: 40° C.; Mobile phases: 0.1% aqueous formic acid and acetonitrile; linear gradient from 10% acetonitrile to 90% acetonitrile. Calibration was carried out using unbranched alkan-2-ones (comprising 3 to 16 carbon atoms) with known log P values (determination of the log P values by the retention times using linear interpolation between two successive alkanones). lambda-max-values were determined using UV-spectra from 200 nm to 400 nm and the peak values of the chromatographic signals.

Uromyces appendiculatus = experiment: In vivo preventive test on Uromyces appendiculatus (bean rust); settings: bean plants, 11 days after contamination
Experimental: In Vivo Preventive Test on Uromyces appendiculatus (Bean Rust) […] Bean plants (“Saxa” variety), sown in starter cups on a 50/50 peat soil pozzolana substrate and grown at 24° C., are treated at the 2 leaf stage (9 cm height) by spraying with the active ingredient prepared as described above. Plants, used as controls, are treated with the mixture of acetone/tween/DMSO/water not containing the active material. After 24 hours, the plants are contaminated by spraying the leaves with an aqueous suspension of Uromyces appendiculatus spores (150 000 spores per mL). The spores are collected from infected plants and are suspended in water containing 2.5 mL/L of Tween 80 at 10%. […] Grading (% of efficacy) is carried out 11 days after the contamination, in comparison with the control plants.

Puccinia recondita = experiment: In vivo preventive test on Puccinia recondita (brown rust on wheat); settings: wheat plants, 12 days after contamination
Experimental: In Vivo Preventive Test on Puccinia recondita (Brown Rust on Wheat) […] Wheat plants (“Scipion” variety), sown in starter cups on a 50/50 peat soil pozzolana substrate and grown at 22° C., are treated at the 1 leaf stage (10 cm height) by spraying with the active ingredient prepared as described above. Plants, used as controls, are treated with the mixture of acetone/tween/DMSO/water not containing the active material. After 24 hours, the plants are contaminated by spraying the leaves with an aqueous suspension of Puccinia recondita spores (100 000 spores per mL). The spores are collected from an infected plant and are suspended in water containing 2.5 mL/L of Tween 80 at 10%. […] Grading (% of efficacy) is carried out 12 days after the contamination, in comparison with the control plants.

Septoria tritici = experiment: In vivo preventive test on Septoria tritici (wheat); settings: wheat plants, 24 days after contamination
Experimental: In Vivo Preventive Test on Septoria tritici (Wheat) […] Wheat plants (“Scipion” variety), sown in starter cups on a 50/50 peat soil pozzolana substrate and grown at 22° C., are treated at the 1 leaf stage (10 cm height) by spraying with the active ingredient prepared as described above. Plants, used as controls, are treated with the mixture of acetone/tween/DMSO/water not containing the active material. After 24 hours, the plants are contaminated by spraying the leaves with an aqueous suspension of cryopreserved Septoria tritici spores (500 000 spores per mL). The contaminated wheat plants are incubated for 72 hours at 18° C. and at 100% relative humidity, and then for 21 days at 90% relative humidity. Grading (% of efficacy) is carried out 24 days after the contamination, in comparison with the control plants.

[2] = Podosphaera fuliginea, 288 h, 500 ppm of active ingredient, read-out: Efficacy
[3] = HPLC on reversed-phase column (C 18), 40° C., 0.1% aqueous formic acid and acetonitrile, linear gradient 10% to 90% acetonitrile
[4] = reversed-phase HPLC column (C 18), HPLC, C 18, 40° C., 0.1% aqueous formic acid and acetonitrile, read-out: logP

Molecule: Cn1cc(C(=O)N(Cc2ccc(-c3cccnc3)cc2Cl)C2CC2)c(C(F)F)n1 [CMP1, N-[2-chloro-4-(pyridin-3-yl)benzyl]-N-cyclopropyl-3-(difluoromethyl)-1-methyl-1H-pyrazole-4-carboxamide, reference compound]
- pest or weed control at 100 ppm (Sphaerotheca fuliginea; Podosphaera fuliginea, 288 h, 100 ppm of active ingredient, read-out: Efficacy): 0%

Molecule: Cn1nc(C(F)F)c(C(=O)N(Cc2ccccc2-c2cccc(Cl)n2)C2CC2)c1F [CMP3, N-[2-(6-chloropyridin-2-yl)benzyl]-N-cyclopropyl-3-(difluoromethyl)-5-fluoro-1-methyl-1H-pyrazole-4-carboxamide, reference compound]
- pest or weed control at 500 ppm (Sphaerotheca fuliginea; [2]): < 40%

Molecule: Cn1cc(C(=O)N(Cc2ccccc2-c2cccc(Cl)n2)C2CC2)c(C(F)F)n1 [CMP4, N-[2-(6-chloropyridin-2-yl)benzyl]-N-cyclopropyl-3-(difluoromethyl)-1-methyl-1H-pyrazole-4-carboxamide, reference compound]
- pest or weed control at 500 ppm (Sphaerotheca fuliginea; [2]): < 40%

Molecule: Cn1nc(C(F)F)c(C(=O)N(Cc2ccccc2-c2cccc(Cl)n2)C2CC2)c1Cl [CMP5, 5-chloro-N-[2-(6-chloropyridin-2-yl)benzyl]-N-cyclopropyl-3-(difluoromethyl)-1-methyl-1H-pyrazole-4-carboxamide, reference compound]
- pest or weed control at 500 ppm (Sphaerotheca fuliginea; [2]): < 40%

Molecule: Cn1nc(C(F)F)c(C(=O)N(Cc2ccccc2C2COC2)C2CC2)c1F [I.1]
- logP [1, 3]: 1.51
- Efficacy (Uromyces appendiculatus; 500 ppm of active ingredient): 83%
- Efficacy (Puccinia recondita; 500 ppm of active ingredient): 75%
- Efficacy (Sphaerotheca fuliginea; 500 ppm of active ingredient): 93%

Molecule: CC1OCC1c1ccccc1CN(C(=O)c1c(C(F)F)nn(C)c1Cl)C1CC1 (stereo not drawn) [I.16]
- Efficacy (Septoria tritici; 500 ppm of active ingredient): 90%
- logP [1, 3]: 2.08

Molecule: CC1CC1N(Cc1ccccc1-c1ccsc1)C(=O)c1c(C(F)F)nn(C)c1Cl (stereo not drawn) [I.88]
- Efficacy (Septoria tritici; 500 ppm of active ingredient): 79%
- logP [1, 3]: 3.92
- Efficacy (Puccinia recondita; 500 ppm of active ingredient): 94%

Molecule: CC1=NOC(C)(c2ccc(C)cc2CN(C(=O)c2c(C(F)F)nn(C)c2F)C2CC2)C1 (stereo not drawn) [I.111]
- logP [1, 3]: 2.98
- Efficacy (Uromyces appendiculatus; 100 ppm of active ingredient): 100%
- Efficacy (Puccinia recondita; 100 ppm of active ingredient): 88%
- Efficacy (Sphaerotheca fuliginea; 100 ppm of active ingredient): 100%

Molecule: Cc1nn(C)c(C)c1-c1ccc(F)cc1CN(C(=O)c1c(C(F)F)nn(C)c1F)C1CC1 [I.112]
- Efficacy (Septoria tritici; 500 ppm of active ingredient): 100%
- logP [1, 3]: 2.66
- Efficacy (Puccinia recondita; 500 ppm of active ingredient): 83%
- Efficacy (Sphaerotheca fuliginea; 500 ppm of active ingredient): 100%

Molecule: Clc1ccc(-c2ccccc2CNC2CC2)s1 [IIa.6, N-[2-(5-chloro-2-thienyl)benzyl]cyclopropanamine]
- chromatographic logP [1, 4]: 1.28

Molecule: Clc1ccc(-c2ccc(Cl)s2)c(CNC2CC2)c1 [IIa.7, N-[5-chloro-2-(5-chloro-2-thienyl)benzyl]cyclopropanamine]
- chromatographic logP [1, 4]: 1.51

Molecule: Clc1ccc(-c2ccco2)cc1CNC1CC1 [IIb.1, N-[2-chloro-5-(2-furyl)benzyl]cyclopropanamine]
- chromatographic logP [1, 4]: 1.08

Molecule: Clc1ccc(-c2cccs2)cc1CNC1CC1 [IIb.2, N-[2-chloro-5-(2-thienyl)benzyl]cyclopropanamine]
- chromatographic logP [1, 4]: 1.29

Molecule: Clc1ccc(-c2ccsc2)cc1CNC1CC1 [IIb.3, N-[2-chloro-5-(3-thienyl)benzyl]cyclopropanamine]
- chromatographic logP [1, 4]: 1.28

Molecule: Clc1ccc(-c2ccc(Cl)c(CNC3CC3)c2)s1 [IIb.4, N-[2-chloro-5-(5-chloro-2-thienyl)benzyl]cyclopropanamine]
- chromatographic logP [1, 4]: 1.58

Molecule: CC(C)c1ccc(Cl)cc1CNC(=O)c1c(C(F)F)nn(C)c1F [Xa.1, N-(5-chloro-2-isopropylbenzyl)-3-(difluoromethyl)-5-fluoro-1-methyl-1H-pyrazole-4-carboxamide]
- chromatographic logP ([1]; logP): 3.46

Molecule: N-cyclopropyl-3-(difluoromethyl)-5-fluoro-1-methyl-N-[2-(3-methyloxetan-3-yl)benzyl]-1H-pyrazole-4-carboxamide [I.15]
- logP [1, 3]: 1.94
- logP ([1]; HPLC, C 18, 40° C., 0.1% aqueous formic acid and acetonitrile): 1.94

Further lines, with some results ahead:

- logP [1, 3]: 2.53
Molecule: Cn1cc(C(=O)N(Cc2cc(F)ccc2C2(C)CO2)C2CC2)c(C(F)F)n1 (stereo not drawn) [I.6]
- Efficacy (Septoria tritici; 100 ppm of active ingredient): 92%
- Efficacy (Uromyces appendiculatus; 100 ppm of active ingredient): 73%
- Efficacy (Puccinia recondita; 100 ppm of active ingredient): 81%

- logP [1, 3]: 3.00
Molecule: Cn1nc(C(F)F)c(C(=O)N(Cc2cc(F)ccc2C2(C)CO2)C2CC2)c1Cl (stereo not drawn) [I.8]
- Efficacy (Uromyces appendiculatus; 100 ppm of active ingredient): 95%
- Efficacy (Puccinia recondita; 100 ppm of active ingredient): 94%

- logP [1, 3]: 3.71
Molecule: Cc1ccc(-c2ccoc2)c(CN(C(=O)c2c(C(F)F)nn(C)c2Cl)C2CC2)c1 [I.37]
- Efficacy (Uromyces appendiculatus; 100 ppm of active ingredient): 83%
- Efficacy (Puccinia recondita; 100 ppm of active ingredient): 81%

- logP [1, 3]: 3.55
Molecule: Cc1ccc(-c2ccoc2)c(CN(C(=O)c2c(C(F)F)nn(C)c2F)C2CC2)c1 [I.39]
- Efficacy (Septoria tritici; 100 ppm of active ingredient): 80%
- Efficacy (Puccinia recondita; 100 ppm of active ingredient): 88%

- logP [1, 3]: 3.71
Molecule: Cn1ccc(-c2ccc(Cl)cc2CN(C(=O)c2c(C(F)F)nn(C)c2F)C2CC2)c1 [I.48]
- Efficacy (Septoria tritici; 500 ppm of active ingredient): 86%
- Efficacy (Uromyces appendiculatus; 500 ppm of active ingredient): 96%
- Efficacy (Puccinia recondita; 500 ppm of active ingredient): 75%

- logP [1, 3]: 2.63
Molecule: Cc1ccc(-c2cnn(C)c2)c(CN(C(=O)c2c(C(F)F)nn(C)c2F)C2CC2)c1 [I.58]
- Efficacy (Septoria tritici; 100 ppm of active ingredient): 97%

- logP [1, 3]: 3.69
Molecule: Cn1cc(C(=O)N(Cc2cc(Cl)ccc2-c2cccs2)C2CC2)c(C(F)F)n1 [I.71]
- Efficacy (Septoria tritici; 500 ppm of active ingredient): 90%
- Efficacy (Uromyces appendiculatus; 500 ppm of active ingredient): 81%
- Efficacy (Sphaerotheca fuliginea; 500 ppm of active ingredient): 98%

- logP [1, 3]: 3.71
Molecule: Cn1nc(C(F)F)c(C(=O)N(Cc2ccccc2-c2ccsc2)C2CC2)c1Cl [I.76]
- Efficacy (Septoria tritici; 500 ppm of active ingredient): 75%
- Efficacy (Uromyces appendiculatus; 500 ppm of active ingredient): 96%
- Efficacy (Puccinia recondita; 500 ppm of active ingredient): 93%

- logP [1, 3]: 4.29
Molecule: Cn1nc(C(F)F)c(C(=O)N(Cc2cc(Cl)ccc2-c2cccs2)C2CC2)c1Cl [I.77]
- Efficacy (Uromyces appendiculatus; 500 ppm of active ingredient): 84%

- logP [1, 3]: 4.92
Molecule: Cn1nc(C(F)F)c(C(=S)N(Cc2cc(Cl)ccc2-c2cccs2)C2CC2)c1Cl [I.79]
- Efficacy (Septoria tritici; 500 ppm of active ingredient): 75%
- Efficacy (Uromyces appendiculatus; 500 ppm of active ingredient): 100%

- logP [1, 3]: 3.48
Molecule: CC1CC1N(Cc1ccccc1-c1ccsc1)C(=O)c1cn(C)nc1C(F)F (stereo not drawn) [I.87]
- Efficacy (Uromyces appendiculatus; 500 ppm of active ingredient): 84%
- Efficacy (Puccinia recondita; 500 ppm of active ingredient): 75%

- logP [1, 3]: 2.98
Molecule: Cc1nn(C)c(C)c1-c1ccc(Cl)cc1CN(C(=O)c1c(C(F)F)nn(C)c1F)C1CC1 [I.113]
- Efficacy (Septoria tritici; 500 ppm of active ingredient): 70%
- Efficacy (Sphaerotheca fuliginea; 500 ppm of active ingredient): 98%

- logP [1, 3]: 4.74
Molecule: Cn1nc(C(F)F)c(C(=O)N(Cc2cc(Cl)ccc2-c2csc3ccccc23)C2CC2)c1F [I.155]
- Efficacy (Septoria tritici; 500 ppm of active ingredient): 86%
- Efficacy (Uromyces appendiculatus; 500 ppm of active ingredient): 99%
- Efficacy (Puccinia recondita; 500 ppm of active ingredient): 75%

- logP [1, 3]: 4.64
Molecule: Cc1ccc(-c2csc3ccccc23)c(CN(C(=O)c2c(C(F)F)nn(C)c2F)C2CC2)c1 [I.160]
- Efficacy (Septoria tritici; 100 ppm of active ingredient): 71%
- Efficacy (Uromyces appendiculatus; 100 ppm of active ingredient): 77%
- Efficacy (Sphaerotheca fuliginea; 100 ppm of active ingredient): 98%

- chromatographic logP [1, 4]: 4.06
Molecule: CC(C)c1ccc(Cl)cc1CN(C(=O)c1c(C(F)F)nn(C)c1F)C1CC1 [N-(5-chloro-2-isopropylbenzyl)-N-cyclopropyl-3-(difluoromethyl)-5-fluoro-1-methyl-1H-pyrazole-4-carboxamide]

- chromatographic logP ([1]; logP): 3.96
Molecule: C=C(C)c1ccc(Cl)cc1CN(C(=O)c1c(C(F)F)nn(C)c1F)C1CC1 [N-[5-chloro-2-(prop-1-en-2-yl)benzyl]-N-cyclopropyl-3-(difluoromethyl)-5-fluoro-1-methyl-1H-pyrazole-4-carboxamide]
